Measured values reported in patent US20040038861A1, “Methods and compositions for normalizing lipid levels in mammalian tissues” (priority 2001, published 2004).

Legend:
soleus muscle [1] = assay: Triglyceride and free fatty acid content (enzymatic) in isolated soleus muscle of rats fed high fat diets; assay type: cell-based, rat; conditions: diet with 40% added lard, 100 nM amylin or CGRP-1, 4.4 μM norepinephrine, 1 h
Excerpt: (§1) High-fatted rats. Groups of male Wistar rats (n=21/diet) were ad libitum fed high-fat diets containing standard rat chow to which 40% (w/w) of lard, corn oil or olive oil had been added, from the time of weaning (age=21 d) until sacrifice at 50 d. Triacylglycerol from lard contains predominantly saturated fatty acids; that from corn oil […], see Table 4.
(§2) Soleus muscle tissue isolation and incuhation.Immersion and incubation media was Krebs-Henseleit buffer (KHB) containing 118.5 mM NaCl, 4.75 mM KCl, 1.18 mM MgSO4.7H2O and KH2PO4, 24.8 mM NaHCO3, 2.54 mM CaCl2 and 10 mM d-glucose. The medium was gassed continuously with 95% O2/5% CO2. […] Soleus muscles of both legs were excised keeping the tissue immersed in KHB; muscles were separated into two equal parts and transferred to the incubation flasks. At the completion of incubation the muscles were snap frozen in liquid nitrogen, and then trimmed of connective tissue and all visible fat. The muscle strips were stored at −80° C. until analysis.
(§3) Lipid extraction and chromatographic separation of fatty acids. Total lipids were extracted from muscle strips by a modified version of the method of Bligh and Dyer (Gorski et al., 1988, Mol & Cell Biochem 178:113-118; 1. Bligh et al., 1959, Can J Biochem Physiol 37: 911-917). Muscles were homogenised (Soniprep 150) in 0.4 ml of deionised water. Solvent volumes used herein were varied according to the water content of the muscle (ie muscle weight) as described (Bligh & Dyer, supra). 2 vols of methanol containing 0.005% butylated hydroxy toluene (BHT) and 1 vol chloroform were added to the muscle suspension. Homogenates were vortexed at maximum speed for 2 minutes and centrifuged at 2,500 g for 4 minutes. Supernatants were recovered and pellets re-extracted with 2 vol methanol, 1 vol chloroform and 0.8 vol 0.2 N HCl. Residues were vortexed for 2 min then centrifuged at 3,500 g for 3 min. After centrifugation the combined supernatants were diluted with 2v each of milli Q water and chloroform and the phases separated by centrifugation at 3,500 g for 4 minutes. The lower chloroform phase was recovered, neutralised by dropwise addition of 0.2 N methanolic NH4OH and evaporated down in a stream of N2. The samples were stored at −80° C. until required.
(§4) Aminopropyl phase (250 mg) was packed into 16 ml teflon columns with teflon frits placed at the top and bottom of the bonded phase. Columns were placed in a Vac Elut apparatus and washed twice with 2 ml portions of hexane (Prasad et al., 1988, J Chromato 428: 221-228; Kaluzny et al., 1985, J Lipid Res 26: 135-140). The dry lipid samples were taken up in two 0.150 ml portions of chloroform and applied to the column under atmospheric pressure. After adsorption the neutral lipids were eluted with 4 ml of chloroform-2-propanol (2:1, v/v) and the free fatty acids eluted with 4 ml of 2% acetic acid in diethyl ether. The solvent containing the free fatty acids was dried under a stream of N2.
Determination of tissue free fatty acids and triacylglycerol concentration by enzymatic analyses. Free fatty acids were separated from total lipid, evaporated under a stream of N2 and stored at −80° C. until analysis. Samples were dissolved in 50 μl of warm ethanol (35-40° C.), and 0.625 ml of a Triton X-100 (6% w/v) solution was added once the ethanol reached room temperature. The solution was stirred for 30 min, then made up to 0.825 ml with the Triton solution. Free fatty acids were quantified using a commercial method (Boehringer Mannheim) adapted for micro analyses (Cobas Mira, Roche Diagnostics), with palmitic acid standards. Triacyl glycerol levels were quantified in the total lipid fraction (Pointe Scientific) with a glycerol standard.
Total lipid was extracted and quantitated. Results are shown in FIGS. 18A NEFA and 18B triglyceride.

soleus muscle [2] = assay: Individual free fatty acids by gas chromatography in soleus muscle of rats fed high fat diets; design: species or system rat; conditions: 1 hour, GC
Excerpt: as §1, §2, §3, §4
Gas-liquid chromatographic analysis. Dry free fatty acid residues were processed for derivatisation of methyl esters by the boron trifluoride-methanol method (Prasad, supra). 1 ml of boron trifluoride in methanol (BF3) was added to each sample, the sample vials were heated at 70° C. for 5 minutes, shaken vigorously, and baked for a further 10 minutes. Once the samples reached room temperature 0.5 ml milli Q water was added, the sample vials shaken, 0.1 ml heptane was added and the sample shaken again. 0.05 ml of the top heptane layer was removed for GLC analysis. A Model HP5890 Plus Series 2 (Hewlett-Packard) gas chromatograph equipped with a DB-225 column was used to separate the methyl esters of the fatty acids and a Model HP 5890 GC with a Model HP 5973 MS (Hewlett-Packard) GC/MS used to confirm the identity of individual free fatty acids. […]

soleus muscle [3] = assay: Lipid metabolites (free fatty acid, glycerol, triglyceride; enzymatic analysis) in isolated soleus muscle from normally fed rats; assay type: cell-based, rat; conditions: soleus, normally fed rats, 100 nM amylin or CGRP-1, 4.4 μM norepinephrine
[4] = rats fed diet high in olive oil

NC[C@H](O)c1ccc(O)c(O)c1 [Norepinephrine, norepinephrine]
soleus muscle triglyceride content (soleus muscle [1]; control 1.14±0.16): 0.69 ± 0.09 µmol/g | soleus muscle free fatty acid content (soleus muscle [1]; control 43±8): 75 ± 7 nmol/g | free fatty acid adrenic C22:4 (soleus muscle [2]; rats fed diet high in corn oil): 0.05 ± 0.004 nmol/g wwt | free fatty acid arachidic C20:0 (soleus muscle [2]; rats fed diet high in corn oil): 0.03 ± 0.002 nmol/g wwt | free fatty acid arachidonic C20:4 (soleus muscle [2]; rats fed diet high in corn oil): 0.08 ± 0.009 nmol/g wwt | free fatty acid cervonic C22:6 (soleus muscle [2]; rats fed diet high in corn oil): 0.04 ± 0.003 nmol/g wwt | free fatty acid linoleic C18:2 (soleus muscle [2]; rats fed diet high in corn oil): 0.14 ± 0.02 nmol/g wwt | free fatty acid linolenic C18:3 (soleus muscle [2]; rats fed diet high in corn oil): 0.13 ± 0.01 nmol/g wwt | free fatty acid margaric C17:0 (soleus muscle [2]; rats fed diet high in corn oil): 0.04 ± 0.006 nmol/g wwt | free fatty acid myristic C14:0 (soleus muscle [2]; rats fed diet high in corn oil): 0.02 ± 0.002 nmol/g wwt | free fatty acid oleic C18:1 (soleus muscle [2]; rats fed diet high in corn oil): 0.12 ± 0.02 nmol/g wwt | free fatty acid palmitic C16:0 (soleus muscle [2]; rats fed diet high in corn oil): 0.09 ± 0.01 nmol/g wwt | free fatty acid palmitoleic (n-7) C16:1 (soleus muscle [2]; rats fed diet high in corn oil): 0.007 ± 0.0005 nmol/g wwt | free fatty acid palmitoleic (n-9) C16:1 (soleus muscle [2]; rats fed diet high in corn oil): 0.15 ± 0.01 nmol/g wwt | free fatty acid pentadecanoic C15:0 (soleus muscle [2]; rats fed diet high in corn oil): 0.04 ± 0.005 nmol/g wwt | free fatty acid stearic C18:0 (soleus muscle [2]; rats fed diet high in corn oil): 0.11 ± 0.008 nmol/g wwt | free fatty acid timnodonic C20:5 (soleus muscle [2]; rats fed diet high in corn oil): 0.05 ± 0.005 nmol/g wwt | free fatty acid vaccenic C18:1 (soleus muscle [2]; rats fed diet high in corn oil): 0.02 ± 0.001 nmol/g wwt | free fatty acid adrenic C22:4 (soleus muscle [2]; rats fed diet high in lard): 0.02 ± 0.003 nmol/g wwt | free fatty acid arachidic C20:0 (soleus muscle [2]; rats fed diet high in lard): 0.03 ± 0.004 nmol/g wwt | free fatty acid arachidonic C20:4 (soleus muscle [2]; rats fed diet high in lard): 0.012 ± 0.003 nmol/g wwt | free fatty acid cervonic C22:6 (soleus muscle [2]; rats fed diet high in lard): 0.01 ± 0.001 nmol/g wwt | free fatty acid linoleic C18:2 (soleus muscle [2]; rats fed diet high in lard): 0.09 ± 0.003 nmol/g wwt | free fatty acid margaric C17:0 (soleus muscle [2]; rats fed diet high in lard): 0.08 ± 0.008 nmol/g wwt | free fatty acid myristic C14:0 (soleus muscle [2]; rats fed diet high in lard): 0.04 ± 0.007 nmol/g wwt | free fatty acid oleic C18:1 (soleus muscle [2]; rats fed diet high in lard): 0.21 ± 0.01 nmol/g wwt | free fatty acid palmitic C16:0 (soleus muscle [2]; rats fed diet high in lard): 0.23 ± 0.02 nmol/g wwt | free fatty acid palmitoleic (n-7) C16:1 (soleus muscle [2]; rats fed diet high in lard): 0.02 ± 0.0008 nmol/g wwt | free fatty acid palmitoleic (n-9) C16:1 (soleus muscle [2]; rats fed diet high in lard): 0.01 ± 0.001 nmol/g wwt | free fatty acid pentadecanoic C15:0 (soleus muscle [2]; rats fed diet high in lard): 0.13 ± 0.02 nmol/g wwt | free fatty acid stearic C18:0 (soleus muscle [2]; rats fed diet high in lard): 0.22 ± 0.01 nmol/g wwt | free fatty acid timnodonic C20:5 (soleus muscle [2]; rats fed diet high in lard): 0.02 ± 0.004 nmol/g wwt | free fatty acid vaccenic C18:1 (soleus muscle [2]; rats fed diet high in lard): 0.07 ± 0.003 nmol/g wwt | free fatty acid adrenic C22:4 (soleus muscle [2]; [4]): 0.02 ± 0.0007 nmol/g wwt | free fatty acid arachidic C20:0 (soleus muscle [2]; [4]): 0.009 ± 0.0004 nmol/g wwt | free fatty acid arachidonic C20:4 (soleus muscle [2]; [4]): 0.03 ± 0.0008 nmol/g wwt | free fatty acid cervonic C22:6 (soleus muscle [2]; [4]): 0.12 ± 0.03 nmol/g wwt | free fatty acid linoleic C18:2 (soleus muscle [2]; [4]): 0.04 ± 0.009 nmol/g wwt | free fatty acid linolenic C18:3 (soleus muscle [2]; [4]): 0.04 ± 0.01 nmol/g wwt | free fatty acid margaric C17:0 (soleus muscle [2]; [4]): 0.01 ± 0.001 nmol/g wwt | free fatty acid myristic C14:0 (soleus muscle [2]; [4]): 0.005 ± 0.0002 nmol/g wwt | free fatty acid oleic C18:1 (soleus muscle [2]; [4]): 0.28 ± 0.03 nmol/g wwt | free fatty acid palmitic C16:0 (soleus muscle [2]; [4]): 0.19 ± 0.002 nmol/g wwt | free fatty acid palmitoleic (n-7) C16:1 (soleus muscle [2]; [4]): 0.03 ± 0.009 nmol/g wwt | free fatty acid palmitoleic (n-9) C16:1 (soleus muscle [2]; [4]): 0.23 ± 0.01 nmol/g wwt | free fatty acid pentadecanoic C15:0 (soleus muscle [2]; [4]): 0.01 ± 0.0004 nmol/g wwt | free fatty acid stearic C18:0 (soleus muscle [2]; [4]): 0.16 ± 0.006 nmol/g wwt | free fatty acid timnodonic C20:5 (soleus muscle [2]; [4]): 0.04 ± 0.004 nmol/g wwt | free fatty acid vaccenic C18:1 (soleus muscle [2]; [4]): 0.2 ± 0.003 nmol/g wwt | triacylglycerol (triglyceride) content (soleus muscle [3]; 60-min, control 1.17±0.15, not significant): 0.81 ± 0.09 µmol/g | intramuscular free fatty acid content (soleus muscle [3]; 1 h, 23.7 nM insulin, control 78±21): 295 ± 27 nmol/g | intramuscular glycerol content (soleus muscle [3]; 1 h, control 0.07±0.007): 0.04 ± 0.005 nmol/g
